Consider 6 molecules from patent publication US11311522B1 (Cavion, Inc., priority 2018, dated 2022).

The subject of one data set is GAERS rats. The data set can be described thus: GAERS rat model of absence epilepsy. The settings on record: 100 mg/kg oral.
The next data set deals with WAG/Rij rats. The data set can be described thus: WAG/Rij rat model of absence epilepsy. Format: in vivo. As to conditions: 10 mg/kg oral. From the text:
Other T-type antagonists from structurally diverse series have shown similar efficacy in this model (Broicher, 2007; Blumenfeld, 2008; Broicher, 2008; Shipe, 2008; Yang, 2008; Uebele, 2009; Russo, 2010; Russo, 2011).
Data were scored with automated seizure analysis software, averaged, and normalized to enable treatment comparisons (FIG. 76)
Control animals received vehicle administrations. […] Source: Merck TTA Package Description (FIG. 79).

The target in a further data set is T1, Cav3.3 (Homo sapiens, UniProt Q9P0X4).
T1 construct: expressed in transfected cells; host or cells: HEK 293
T1 sequence (Q9P0X4 whole entry, species assumed): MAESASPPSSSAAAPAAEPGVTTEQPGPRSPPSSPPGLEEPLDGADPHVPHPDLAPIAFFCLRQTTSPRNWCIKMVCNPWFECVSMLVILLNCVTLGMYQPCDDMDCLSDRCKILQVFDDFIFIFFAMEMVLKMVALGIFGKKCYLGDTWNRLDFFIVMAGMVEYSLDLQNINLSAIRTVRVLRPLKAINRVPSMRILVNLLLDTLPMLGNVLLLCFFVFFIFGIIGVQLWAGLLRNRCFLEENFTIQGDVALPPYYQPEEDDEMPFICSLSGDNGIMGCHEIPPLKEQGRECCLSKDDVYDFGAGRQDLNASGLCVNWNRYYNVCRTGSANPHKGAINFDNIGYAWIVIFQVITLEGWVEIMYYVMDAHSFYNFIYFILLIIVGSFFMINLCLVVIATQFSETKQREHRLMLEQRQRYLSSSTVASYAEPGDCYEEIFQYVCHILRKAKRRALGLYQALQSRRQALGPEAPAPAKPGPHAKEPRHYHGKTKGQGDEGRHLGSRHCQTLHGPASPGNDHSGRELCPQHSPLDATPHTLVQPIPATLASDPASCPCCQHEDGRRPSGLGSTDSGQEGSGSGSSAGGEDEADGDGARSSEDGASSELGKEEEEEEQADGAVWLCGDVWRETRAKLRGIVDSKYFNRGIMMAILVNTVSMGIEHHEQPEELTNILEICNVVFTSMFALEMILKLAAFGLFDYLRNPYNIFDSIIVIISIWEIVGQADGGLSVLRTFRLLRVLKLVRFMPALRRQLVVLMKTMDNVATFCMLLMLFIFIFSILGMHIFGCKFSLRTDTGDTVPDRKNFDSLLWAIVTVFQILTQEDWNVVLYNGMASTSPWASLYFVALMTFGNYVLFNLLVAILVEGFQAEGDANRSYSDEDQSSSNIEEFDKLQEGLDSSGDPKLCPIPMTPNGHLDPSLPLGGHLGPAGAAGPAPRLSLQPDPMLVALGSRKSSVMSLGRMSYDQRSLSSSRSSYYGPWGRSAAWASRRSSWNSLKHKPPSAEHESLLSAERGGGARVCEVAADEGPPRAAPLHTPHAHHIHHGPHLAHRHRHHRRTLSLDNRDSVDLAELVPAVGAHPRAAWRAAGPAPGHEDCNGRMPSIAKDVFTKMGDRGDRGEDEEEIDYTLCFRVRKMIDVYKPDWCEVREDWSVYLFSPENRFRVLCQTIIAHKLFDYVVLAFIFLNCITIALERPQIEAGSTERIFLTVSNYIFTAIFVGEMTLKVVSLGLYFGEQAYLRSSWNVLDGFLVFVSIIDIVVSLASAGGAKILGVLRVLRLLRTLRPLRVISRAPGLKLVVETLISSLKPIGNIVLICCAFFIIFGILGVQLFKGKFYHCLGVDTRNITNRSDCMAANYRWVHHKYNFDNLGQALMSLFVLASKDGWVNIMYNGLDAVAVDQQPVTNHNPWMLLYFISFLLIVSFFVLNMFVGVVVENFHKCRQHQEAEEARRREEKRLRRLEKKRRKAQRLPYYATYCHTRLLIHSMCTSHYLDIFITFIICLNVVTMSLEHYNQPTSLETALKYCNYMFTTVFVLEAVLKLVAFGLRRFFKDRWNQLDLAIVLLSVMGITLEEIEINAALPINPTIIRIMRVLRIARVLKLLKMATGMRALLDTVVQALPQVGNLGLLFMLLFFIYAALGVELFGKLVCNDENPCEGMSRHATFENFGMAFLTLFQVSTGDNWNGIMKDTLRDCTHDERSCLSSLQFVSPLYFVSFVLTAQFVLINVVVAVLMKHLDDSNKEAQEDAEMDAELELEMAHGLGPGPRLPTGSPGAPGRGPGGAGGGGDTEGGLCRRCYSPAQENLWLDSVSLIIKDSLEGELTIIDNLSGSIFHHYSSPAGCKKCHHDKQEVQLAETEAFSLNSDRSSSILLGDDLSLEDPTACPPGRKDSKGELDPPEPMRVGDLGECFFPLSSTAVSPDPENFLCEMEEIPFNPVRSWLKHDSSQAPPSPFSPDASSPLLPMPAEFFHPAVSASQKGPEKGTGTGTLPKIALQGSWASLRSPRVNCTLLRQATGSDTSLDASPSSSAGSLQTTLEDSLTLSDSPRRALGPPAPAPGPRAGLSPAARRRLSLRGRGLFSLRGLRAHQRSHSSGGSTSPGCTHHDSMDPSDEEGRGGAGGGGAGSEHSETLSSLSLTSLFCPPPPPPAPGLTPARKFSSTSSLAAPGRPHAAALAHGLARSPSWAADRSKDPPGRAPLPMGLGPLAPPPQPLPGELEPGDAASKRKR
Description: Cav3.3 FLIPR calcium influx assay (HEK 293 cells). The data set is classed as cell-based. The settings on record: for IC50: Cav3.3 FLIPR assay; for State dependence: hyperpolarized versus depolarized FLIPR potency.

Data set [1] is described as follows: Single-dose toxicokinetic study in dogs. The settings on record: dog, plasma, po, 800 mg/kg. The data set is classed as in vivo.
Data set [2] is described as follows: 90-day oral toxicology in Beagle dogs. The settings on record: Beagle, dog, in vivo, po.
The nature of data set [3]: Brain penetration in male rats. Format: in vivo. The settings on record: rat, 25 mg/kg.
A short description of data set [4]: In vitro plasma protein binding, human. The data set is classed as in vitro ADME. The settings on record: human plasma, read-out: Human-free fraction.
A further data set can be described thus: in vivo. The settings on record: rat, po.
Data set [5] in a line: T-CALM: plasma concentrations by 5-in-1 LC/MS/MS. Format: in vivo, human. As to conditions: for Plasma concentration, mean: trough; for concentration at 4 h: human, plasma, oral, 4 hours post-dose.
Description: Additionally, at Visit 4, a post-dose sample will be collected as close to 4 hours post-dose as possible, but within the window of 4-6 hours post-dose (i.e., a total of two PK samples are collected at Visit 4.)
Assay performances were satisfactory and met acceptance criteria for system performance suitability, quantitation range, calibration linearity, assay accuracy and precision, and assay recovery.
In a further data set the test system is Cav3. The settings on record: from literature, cited from earlier work; for IC50: read-out: Cav3 potency.
The conditions of data set [6]: rodents; from literature; cited from earlier work.
For data set [7] the following is noted: rodents; from literature; cited from earlier work. This is another data set of the same source.
The subject of the next data set is harmaline-induced tremor. The settings on record: dose levels up to 10 mg/kg; cited from earlier work.
For data set [8] the following is noted: rodents; from literature; cited from earlier work. The source holds these as a separate data set.
Data set [9] concerns patients with schizophrenia. Description: PN004: safety. Format: in vivo, human. The settings on record: Study PN004, subjects with schizophrenia, BID Days 1 to 28; CX-8998 N = 86, Olanzapine N = 47.
Description: The primary efficacy endpoint was the mean change from baseline in the Positive and Negative Syndrome Scale (PANSS) total score at Week 4; secondary efficacy endpoints included responder rates on the PANSS total score at Week 4 and the change from baseline in the Clinical Global Impressions—Severity of Illness Scale at Week 4. Safety was monitored by adverse events, laboratory evaluations, ECGs, Holter monitoring, vital signs, the Simpson-Angus Scale, the Barnes Akathisia Rating Scale, the Abnormal Involuntary Movement Scale, and the Columbia Suicide-Severity Rating scale (C-SSRS).
Where [10] appears, read: depolarized, read-out: Depolarized FLIPR potency.
Where [11] appears, read: hyperpolarized, read-out: Hyperpolarized FLIPR potency.

Like-named read-outs stand apart in the source and are kept apart here.

As for `CCC1(C)CC(=O)NC1=O` (stereo not shown) [Ethosuximide, ethosuximide], the “Number and frequency of seizures” value with GAERS rats is “only partially suppressed”.
Molecule `CC(C(=O)O)c1ccc(CC(=O)N[C@H](C)c2ccc(OCC(F)(F)F)cn2)cc1` (stereo partly shown) [M03] displayed a Percent of inhibition in the data set on WAG/Rij rats of 71%. The “Potency and state dependence compared with CX-8998” value on Cav3.3 is “significantly less potent and state dependent”. Further, the IC50 on Cav3.3 (setting [10]) turned out to be 948 nM; on Cav3.3 (setting [11]), 3320 nM. On Cav3.3, the State dependence stood at 3.5 fold. The results for the time to peak (Tmax) in data set [1] (female) and in data set [1] (male) were 8 h and 24 h, respectively. Also, the area under the curve (AUC) (in general, concentration integrated over time) in data set [2] (female, 10 mg/kg) amounted to 8.4 µM·h; in data set [2] (female, 30 mg/kg), 15.4 µM·h; in [2] (female, 100 mg/kg/day), 17.2 µM·h; in data set [2] (male, 10 mg/kg) it was 10.5 µM·h; in data set [2] (male, 30 mg/kg), 12.3 µM·h; in [2] (male, 100 mg/kg/day), 79.6 µM·h. The AUC was determined as 9.85 µM·h in the data set “in vivo” (female, 5 mg/kg); 19.7 µM·h in “in vivo” (female, 15 mg/kg); 159 µM·h in “in vivo” (female, 100 mg/kg); 169 µM·h in the data set “in vivo” (female, 300 mg/kg); 23.9 µM·h in “in vivo” (male, 5 mg/kg); 34.9 µM·h in “in vivo” (male, 15 mg/kg). For the same molecule, the AUC was found to be 181 µM·h in “in vivo” (male, 100 mg/kg) and 213 µM·h in “in vivo” (male, 300 mg/kg). Besides, the Kp at 2 h in data set [3] (brain and plasma, oral, read-out: Brain-to-plasma ratio) amounted to 0.01; in data set [3] (brain, po, read-out: Brain: Plasma Ratio) it was 0.01. Moreover, in [4], the fraction unbound came to 0.21. The “Plasma concentration, mean” value is given as 11 nM in data set [5] (Visit 2 (Day 8), 4 mg BID); 16 nM in data set [5] (Visit 3 (Day 15), 8 mg BID); 20 nM in [5] (Visit 4 (Day 28), 10 mg BID). The concentration at 4 h in data set [5] (Visit 4 (Day 28), 10 mg BID) came to 22 nM.
Turning to `CC(CO)c1ccc(CC(=O)N[C@H](C)c2ccc(OCC(F)(F)F)cn2)cc1` (stereo partly shown) [M04], in the data set with WAG/Rij rats, the Percent of inhibition was 60%. The “Fold less potent than CX-8998” value on Cav3.3 is listed as “approximately 5 fold”. Moreover, the IC50 on Cav3.3 (setting [10]) came to 19 nM; at Cav3.3 (setting [11]) it was 1810 nM. Besides, on Cav3.3, the State dependence was determined as 95 fold. In addition, the AUC in data set [2] (female, 10 mg/kg) turned out to be 2.19 µM·h; in data set [2] (female, 30 mg/kg) it was 3.75 µM·h; in data set [2] (female, 100 mg/kg/day), 8.1 µM·h; in [2] (male, 10 mg/kg), 3.37 µM·h; in data set [2] (male, 30 mg/kg), 2.25 µM·h; in [2] (male, 100 mg/kg/day), 33.9 µM·h. The exposure (AUC) in the data set “in vivo” (female, 5 mg/kg) worked out at 3.19 µM·h; in “in vivo” (female, 15 mg/kg) it was 8.04 µM·h; in “in vivo” (female, 100 mg/kg), 61.9 µM·h; in the data set “in vivo” (female, 300 mg/kg) it was 55.3 µM·h; in the data set “in vivo” (male, 5 mg/kg), 1.32 µM·h; in “in vivo” (male, 15 mg/kg) it was 2.47 µM·h. Moreover, the exposure (AUC) in “in vivo” (male, 100 mg/kg) came out at 15.5 µM·h; in the data set “in vivo” (male, 300 mg/kg), 19.4 µM·h. The fraction unbound in data set [4] was 0.13. For the same molecule, the “Plasma concentration, mean” value in data set [5] (Visit 2 (Day 8), 4 mg BID) is reported as 4.5 nM; in data set [5] (Visit 3 (Day 15), 8 mg BID) it was 4.9 nM; in data set [5] (Visit 4 (Day 28), 10 mg BID), 5.6 nM. Besides, the concentration at 4 h in data set [5] (Visit 4 (Day 28), 10 mg BID) was determined as 6.4 nM.
On to `C[C@@H](NC(=O)Cc1ccc(C2CC2)cc1)c1ccc(OCC(F)(F)F)cn1` [TTA-A2], for which, in the data set with Cav3, the State dependency is listed as at least 40 fold and the IC50 is 89 to 98 nM. For the same molecule, in data set [6], the Plasma-free fraction was 0.6%. For the same molecule, in [7], the AUClast is 30 µM·h and the t½ (as a rule, how long it takes for the measured level to halve) is 1.5 h.
Consider `CC1(C)C[C@@H](CN2CCC(F)(CNC(=O)c3cc(Cl)cc(Cl)c3)CC2)CCO1` [TTA-P2], for which the Harmaline-induced tremor result in the data set with harmaline-induced tremor was “normalized both physiologic tremor prior to harmaline administration and harmaline-induced tremor in a dose-dependent fashion”. Besides, in the data set with Cav3, the State dependency is 1 fold and the IC50 is 84 to 196 nM. Moreover, in [8], the Brain/plasma ratio is given as 6.0. Further, the Plasma-free fraction in data set [6] is on record as 5.7%. In [7], the AUClast is 1.94 µM·h, the maximum concentration (Cmax) (usually the highest concentration seen after dosing) is 480 nM, the Tmax (commonly the time at which the peak concentration occurs) was 0.7 h and the t½ was 1.8 h.
On to `Cc1cc2c(s1)Nc1ccccc1N=C2N1CCN(C)CC1` [olanzapine, reference compound], for which, in data set [9], the Anxiety is reported as 0 (0.0), the “At least 1 adverse event” value is on record as 23 (48.9), the Chronic pharyngitis is 0 (0.0) and the Dizziness was 1 (2.1). Besides, in data set [9], the Headache was 3 (6.4), the Rhinopharyngitis was 0 (0.0), the Schizophrenia is given as 1 (2.1) and the Sinus tachycardia is given as 3 (6.4). The Somnolence in data set [9] is 3 (6.4).
